{"source": "patent US20230077362A1", "about": "(CORTEVA AGRISCIENCE LLC, priority 2019, published 2023)", "key": {"[1]": {"system": "Cabbage Looper (Trichoplusia ni) (\"CL\"), second instar larvae", "assay": "Bioassay on cabbage looper (CL), 128-well diet tray assay", "format": "in vivo", "conditions": "for pest or weed control at 50 µg/cm2: Trichoplusia ni, read-out: CL rating; for CL rating: Table ABC, species CL, C = not tested, D = no activity noticed", "outline": "(§1)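 Sealed trays, 25° C., 14:10 light:dark, 5–7 d. Per-well % mortality recorded, mean of eight wells reported.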"}, "[2]": {"system": "Beet Armyworm (Spodoptera exigua) (\"BAW\"), second instar larvae", "assay": "Bioassay on beet armyworm (BAW), 128-well diet tray assay", "format": "in vivo", "conditions": "for pest or weed control at 50 µg/cm2: Spodoptera exigua, read-out: BAW rating; for BAW rating: Table ABC, species BAW, C = not tested, D = no activity noticed", "outline": "as §1"}}}
{"compound": "Cc1ccc(COCC(F)(F)F)c(N2C(=O)CS/C2=N\\C(=O)Nc2ccc(-c3ncn(-c4ccc(OCC(F)(F)F)cc4)n3)cc2F)c1", "note": "[Compound J764, (Z)-1-(2-Fluoro-4-(1-(4-(2,2,2-trifluoroethoxy)phenyl)-1H-1,2,4-triazol-3-yl)phenyl)-3-(3-(5-methyl-2-((2,2,2-trifluoroethoxy)methyl)phenyl)-4-oxothiazolidin-2-ylidene)urea]", "values": [{"measurement": "pest or weed control at 50 µg/cm2", "setting": "[1]", "value": "50 to 100", "unit": "%"}, {"measurement": "pest or weed control at 50 µg/cm2", "setting": "[2]", "value": "50 to 100", "unit": "%"}]}
{"compound": "Cc1ccc(COCC(F)(F)F)c(N2C(=O)CS/C2=N\\C(=O)Nc2ccc(-c3ncn(-c4ccc(OCC(F)(F)F)nc4)n3)cc2F)c1", "note": "[Compound J765, (Z)-1-(2-Fluoro-4-(1-(6-(2,2,2-trifluoroethoxy)pyridin-3-yl)-1H-1,2,4-triazol-3-yl)phenyl)-3-(3-(5-methyl-2-((2,2,2-trifluoroethoxy)methyl)phenyl)-4-oxothiazolidin-2-ylidene)urea]", "values": [{"measurement": "pest or weed control at 50 µg/cm2", "setting": "[1]", "value": "50 to 100", "unit": "%"}, {"measurement": "pest or weed control at 50 µg/cm2", "setting": "[2]", "value": "50 to 100", "unit": "%"}]}
{"compound": "CCOCc1ccc(C)cc1N1C(=O)CS/C1=N\\C(=O)Nc1ccc(-c2ncn(-c3ccc(OCC(F)(F)F)cc3)n2)cc1F", "note": "[Compound J766, (Z)-1-(3-(2-(Ethoxymethyl)-5-methylphenyl)-4-oxothiazolidin-2-ylidene)-3-(2-fluoro-4-(1-(4-(2,2,2-trifluoroethoxy)phenyl)-1H-1,2,4-triazol-3-yl)phenyl)urea]", "values": [{"measurement": "pest or weed control at 50 µg/cm2", "setting": "[1]", "value": "50 to 100", "unit": "%"}, {"measurement": "pest or weed control at 50 µg/cm2", "setting": "[2]", "value": "50 to 100", "unit": "%"}]}
{"compound": "Cc1ccc(COCC(F)(F)F)c(N2C(=O)CS/C2=N\\C(=O)Nc2ccc(-c3nnn(-c4ccc(OC(F)(F)F)cc4)n3)cc2)c1", "note": "[Compound J767, (Z)-1-(3-(5-Methyl-2-((2,2,2-trifluoroethoxy)methyl)phenyl)-4-oxothiazolidin-2-ylidene)-3-(4-(2-(4-(trifluoromethoxy)phenyl)-2H-tetrazol-5-yl)phenyl)urea]", "values": [{"measurement": "pest or weed control at 50 µg/cm2", "setting": "[1]", "value": "50 to 100", "unit": "%"}, {"measurement": "pest or weed control at 50 µg/cm2", "setting": "[2]", "value": "50 to 100", "unit": "%"}]}
{"compound": "Cc1ccc(COCC(F)F)c(N2C(=O)CS/C2=N\\C(=O)Nc2ccc(-c3nnn(-c4ccc(OC(F)(F)F)cc4)n3)cc2)c1", "note": "[Compound J768, (Z)-1-(3-(2-((2,2-Difluoroethoxy)methyl)-5-methylphenyl)-4-oxothiazolidin-2-ylidene)-3-(4-(2-(4-(trifluoromethoxy)phenyl)-2H-tetrazol-5-yl)phenyl)urea]", "values": [{"measurement": "pest or weed control at 50 µg/cm2", "setting": "[1]", "value": "50 to 100", "unit": "%"}, {"measurement": "pest or weed control at 50 µg/cm2", "setting": "[2]", "value": "50 to 100", "unit": "%"}]}
{"compound": "Cc1ccc(COCC(F)(F)F)c(N2C(=O)CS/C2=N\\C(=O)Nc2ccc(-c3ncn(-c4ccccc4)n3)cc2F)c1", "note": "[Compound J769, (Z)-1-(2-Fluoro-4-(1-phenyl-1H-1,2,4-triazol-3-yl)phenyl)-3-(3-(5-methyl-2-((2,2,2-trifluoroethoxy)methyl)phenyl)-4-oxothiazolidin-2-ylidene)urea]", "values": [{"measurement": "pest or weed control at 50 µg/cm2", "setting": "[1]", "value": "50 to 100", "unit": "%"}, {"measurement": "pest or weed control at 50 µg/cm2", "setting": "[2]", "value": "50 to 100", "unit": "%"}]}
{"compound": "Cc1ccc(COCC(F)(F)F)c(N2C(=O)CS/C2=N\\C(=O)Nc2ccc(-c3noc(-c4ccc(OC(F)(F)F)cc4)n3)cc2F)c1", "note": "[Compound J770, (Z)-1-(2-Fluoro-4-(5-(4-(trifluoromethoxy)phenyl)-1,2,4-oxadiazol-3-yl)phenyl)-3-(3-(5-methyl-2-((2,2,2-trifluoroethoxy)methyl)phenyl)-4-oxothiazolidin-2-ylidene)urea]", "values": [{"measurement": "pest or weed control at 50 µg/cm2", "setting": "[1]", "value": "50 to 100", "unit": "%"}, {"measurement": "pest or weed control at 50 µg/cm2", "setting": "[2]", "value": "50 to 100", "unit": "%"}]}
{"compound": "Cc1ccc(COCC(F)F)c(N2C(=O)CS/C2=N\\C(=O)Nc2ccc(-c3noc(-c4ccc(OC(F)(F)F)cc4)n3)cc2F)c1", "note": "[Compound J771, (Z)-1-(3-(2-((2,2-Difluoroethoxy)methyl)-5-methylphenyl)-4-oxothiazolidin-2-ylidene)-3-(2-fluoro-4-(5-(4-(trifluoromethoxy)phenyl)-1,2,4-oxadiazol-3-yl)phenyl)urea]", "values": [{"measurement": "pest or weed control at 50 µg/cm2", "setting": "[1]", "value": "50 to 100", "unit": "%"}, {"measurement": "pest or weed control at 50 µg/cm2", "setting": "[2]", "value": "50 to 100", "unit": "%"}]}
{"compound": "COCc1ccc(C)cc1N1C(=O)CS/C1=N\\C(=O)Nc1ccc(-c2noc(-c3ccc(OC(F)(F)F)cc3)n2)cc1F", "note": "[Compound J772, (Z)-1-(2-Fluoro-4-(5-(4-(trifluoromethoxy)phenyl)-1,2,4-oxadiazol-3-yl)phenyl)-3-(3-(2-(methoxymethyl)-5-methylphenyl)-4-oxothiazolidin-2-ylidene)urea]", "values": [{"measurement": "pest or weed control at 50 µg/cm2", "setting": "[1]", "value": "50 to 100", "unit": "%"}, {"measurement": "pest or weed control at 50 µg/cm2", "setting": "[2]", "value": "50 to 100", "unit": "%"}]}
{"compound": "COCc1ccc(N(C)C)cc1N1C(=O)CS/C1=N\\C(=O)Nc1ccc(-c2noc(-c3ccc(OC(F)(F)F)cc3)n2)cc1F", "note": "[Compound J773, (Z)-1-(3-(5-(Dimethylamino)-2-(methoxymethyl)phenyl)-4-oxothiazolidin-2-ylidene)-3-(2-fluoro-4-(5-(4-(trifluoromethoxy)phenyl)-1,2,4-oxadiazol-3-yl)phenyl)urea]", "values": [{"measurement": "pest or weed control at 50 µg/cm2", "setting": "[1]", "value": "50 to 100", "unit": "%"}, {"measurement": "pest or weed control at 50 µg/cm2", "setting": "[2]", "value": "50 to 100", "unit": "%"}]}
{"compound": "Cc1ccc(COCC(F)(F)F)c(N2C(=O)C(CO)(CO)S/C2=N\\C(=O)Nc2ccc(-c3ncn(-c4ccc(OC(F)(F)F)cc4)n3)cc2F)c1", "note": "[Compound J778, (Z)-1-(5,5-Bis(hydroxymethyl)-3-(5-methyl-2-((2,2,2-trifluoroethoxy)methyl)phenyl)-4-oxothiazolidin-2-ylidene)-3-(2-fluoro-4-(1-(4-(trifluoromethoxy)phenyl)-1H-1,2,4-triazol-3-yl)phenyl)urea]", "values": [{"measurement": "pest or weed control at 50 µg/cm2", "setting": "[1]", "value": "50 to 100", "unit": "%"}, {"measurement": "pest or weed control at 50 µg/cm2", "setting": "[2]", "value": "50 to 100", "unit": "%"}]}
{"compound": "Cc1ccc(COCCC(F)(F)F)c(N2C(=O)CS/C2=N\\C(=O)Nc2ccc(-c3ncn(-c4ccccc4)n3)cc2F)c1", "note": "[Compound J779, (Z)-1-(2-Fluoro-4-(1-phenyl-1H-1,2,4-triazol-3-yl)phenyl)-3-(3-(5-methyl-2-((3,3,3-trifluoropropoxy)methyl)phenyl)-4-oxothiazolidin-2-ylidene)urea]", "values": [{"measurement": "pest or weed control at 50 µg/cm2", "setting": "[1]", "value": "50 to 100", "unit": "%"}, {"measurement": "pest or weed control at 50 µg/cm2", "setting": "[2]", "value": "50 to 100", "unit": "%"}]}
{"compound": "Cc1ccc(COCC(F)(F)F)c(N2C(=O)CS/C2=N\\C(=O)Nc2ccc(-c3ncn(-c4ccccc4)n3)cc2C)c1", "note": "[Compound J780]", "values": [{"measurement": "CL rating", "setting": "[1]", "value": "A (50-100)"}, {"measurement": "BAW rating", "setting": "[2]", "value": "A (50-100)"}]}
{"compound": "Cc1ccc(COCCC(F)(F)F)c(N2C(=O)CS/C2=N\\C(=O)Nc2ccc(-c3ncn(-c4ccccc4)n3)cc2C)c1", "note": "[Compound J781, (Z)-1-(3-(5-Methyl-2-((3,3,3-trifluoropropoxy)methyl)phenyl)-4-oxothiazolidin-2-ylidene)-3-(2-methyl-4-(1-phenyl-1H-1,2,4-triazol-3-yl)phenyl)urea]", "values": [{"measurement": "pest or weed control at 50 µg/cm2", "setting": "[1]", "value": "50 to 100", "unit": "%"}, {"measurement": "pest or weed control at 50 µg/cm2", "setting": "[2]", "value": "50 to 100", "unit": "%"}]}
{"compound": "Cc1ccc(COCC(F)(F)F)c(N2C(=O)CS/C2=N\\C(=O)Nc2ccc(-c3ncn(-c4ccc(F)cc4)n3)cc2F)c1", "note": "[Compound J782, (Z)-1-(2-Fluoro-4-(1-(4-fluorophenyl)-1H-1,2,4-triazol-3-yl)phenyl)-3-(3-(5-methyl-2-((2,2,2-trifluoroethoxy)methyl)phenyl)-4-oxothiazolidin-2-ylidene)urea]", "values": [{"measurement": "pest or weed control at 50 µg/cm2", "setting": "[1]", "value": "50 to 100", "unit": "%"}, {"measurement": "pest or weed control at 50 µg/cm2", "setting": "[2]", "value": "50 to 100", "unit": "%"}]}
{"compound": "CCCc1ccc(C)cc1N1C(=O)CS/C1=N\\C(=O)Nc1ccc(-c2ncn(-c3ccc(N(C(=O)OC)C(F)(F)F)cc3)n2)cc1F", "note": "[Compound J783, Methyl (Z)-(4-(3-(3-fluoro-4-(3-(3-(5-methyl-2-propylphenyl)-4-oxothiazolidin-2-ylidene)ureido)phenyl)-1H-1,2,4-triazol-1-yl)phenyl)(trifluoromethyl)carbamate]", "values": [{"measurement": "pest or weed control at 50 µg/cm2", "setting": "[1]", "value": "50 to 100", "unit": "%"}, {"measurement": "pest or weed control at 50 µg/cm2", "setting": "[2]", "value": "50 to 100", "unit": "%"}]}
{"compound": "CCCc1ccc(C)cc1N1C(=O)CS/C1=N\\C(=O)Nc1ccc(-c2ncn(-c3ccc(N(C(=O)OC)C(F)(F)F)cc3)n2)cc1C", "note": "[Compound J784]", "values": [{"measurement": "CL rating", "setting": "[1]", "value": "A (50-100)"}, {"measurement": "BAW rating", "setting": "[2]", "value": "A (50-100)"}]}
